Measurements as given in patent US20030203373A1 (priority 2002, published 2003).
Values joined by “and” are separate entries in the source; they are usually repeats but may differ in a detail not shown here. Equal entries are not always repeated. “Also recorded” adds a separate entry of the source.

Test system: normotensive Wister rats
Assay: Bradykinin-potentiating effect on blood pressure in anaesthetized normotensive rats
Type: in vivo, rat
Procedure: In the in vivo experiments with normotensive rats the animals were previously anaesthetized and after blood pressure stabilization treated with a constant amount of bradykinin. Subsequently, either Captopril or human BPP were administered, again followed by a constant amount of bradykinin. Afterwards the maximum blood pressure drop was determined and, on the basis of bradykinin as a factor 1, the potentiating factor was determined. In the same way, the systolic and diastolic blood pressure, the percentage middle pressure decrease and the time required to come back to the baseline values were measured (see tables 4a to 4j). A detailed experimental description is given below.
2. Measurement of Blood Pressure in Normotensive and Hypertensive Rats
The trials were conducted on female anaesthetized normotensive Wister rats with weight ranging from 210 to 240 g.
The peptide pANP48-57 used for the in vivo assays was synthesized by Biosynthan (Berlin) with a HPLC-determined purity of 98%.
Anaesthetizing was performed by i.p.-administration of 1 ml/kg Ketavit (100 mg/ml)+Rampun (2%).
In order to conduct the blood pressure measurement, a polyethylene catheter was introduced into the Aorta femuralis and connected with a pressure transducer. A Statham-P23A pressure-transducer was linked to a Gould Polygraph and used to determine the arterial blood pressure. A Hg-manometer was used to calibrate the system.
All substances were dissolved and diluted in a physiological sodium chloride solution and introduced into the Vena jugularis via a catheter.
After stabilization of blood pressure (after about 10 minutes) […] body weight of a 2,5 μM bradykinin-solution (Sigma) was administered.
The middle pressure was determined from the measured diastolic (pd) and systolic (ps) blood pressure by using the following formula: pm=(ps−Pd)×0,42+pd.

[1] = S605 1 × 10^−3 M + Bradykinin 2.5 × 10^−6 M
[2] = S605 1 × 10^−3 M + Bradykinin 2.5 × 10^−6 M, individual female rat
[3] = S605 1.5 × 10^−3 M + Bradykinin 2.5 × 10^−6 M
[4] = S605 1.5 × 10^−3 M + Bradykinin 2.5 × 10^−6 M, Rat (female) 216 g, Table 4j
[5] = S605 1.5 × 10^−3 M + Bradykinin 2.5 × 10^−6 M, individual female rat
[6] = S605 1.5 × 10^−4 M + Bradykinin 2.5 × 10^−6 M
[7] = S605 1.5 × 10^−4 M + Bradykinin 2.5 × 10^−6 M, individual female rat
[8] = S605 5 × 10^−3 M + Bradykinin 2.5 × 10^−6 M
[9] = S605 5 × 10^−3 M + Bradykinin 2.5 × 10^−6 M, Rat (female) 211 g, Table 4i
[10] = S605 5 × 10^−3 M + Bradykinin 2.5 × 10^−6 M, individual female rat

## CC(C)C[C@H](NC(=O)[C@H](C)N)C(=O)N[C@@H](CO)C(=O)N1CCC[C@H]1C(=O)N[C@@H](CC(C)C)C(=O)N1CCC[C@H]1C(=O)N[C@@H](CCC(=O)O)C(=O)N[C@H](C(=O)N1CCC[C@H]1C(=O)N1CCC[C@H]1C(=O)O)C(C)C [Peptide S545]
[1]
  maximal drop of blood pressure: 48.5%
  potentiating factor (Bradykinin = 1): 1.49
[2]
  Blood pressure minimal, PM (middle pressure) = (Ps − Pd) × 0.42 + Pd: 39 mg Hg
  Blood pressure minimal, diastolic: 28 mg Hg
  Blood pressure minimal, systolic: 55 mg Hg
  time to reach the baseline value: time to reach the baseline value (t = 31 s)
  ΔP (middle pressure drop): 37 mg Hg
  ΔP (middle pressure drop), percentage: 48.5%
[3]
  maximal drop of blood pressure: 50.5% ± 5.2
  potentiating factor (Bradykinin = 1): 1.61
[4]
  Blood pressure minimal, PM (middle pressure) = (Ps − Pd) × 0.42 + Pd: 39 mg Hg
  Blood pressure minimal, diastolic: 28 mg Hg
  Blood pressure minimal, systolic: 55 mg Hg
  following short overreaction at maximum (systolic/diastolic): following short overreaction at maximum of 106/80
  time to reach the baseline value: time to reach the baseline value (t = 20 s)
  ΔP (middle pressure drop): 43 mg Hg
  ΔP (middle pressure drop), percentage: 52.4%
[5]
  Blood pressure minimal, PM (middle pressure) = (Ps − Pd) × 0.42 + Pd: 40 mg Hg and 34 mg Hg
  Blood pressure minimal, diastolic: 34 mg Hg and 26 mg Hg
  Blood pressure minimal, systolic: 49 mg Hg and 45 mg Hg
  time to reach the baseline value: time to reach the baseline value (t = 46 s); also recorded: time to reach the baseline value (t = 57 s)
  ΔP (middle pressure drop): 32 mg Hg and 41 mg Hg
  ΔP (middle pressure drop), percentage: 44.6% and 54.4%
[6]
  maximal drop of blood pressure: 38.9% ± 8.3
  potentiating factor (Bradykinin = 1): 1.24
[7]
  Blood pressure minimal, PM (middle pressure) = (Ps − Pd) × 0.42 + Pd: 48 mg Hg and 34 mg Hg and 33 mg Hg
  Blood pressure minimal, diastolic: 40 mg Hg and 26 mg Hg and 28 mg Hg
  Blood pressure minimal, systolic: 60 mg Hg and 46 mg Hg and 40 mg Hg
  time to reach the baseline value: time to reach the baseline value (t = 26 s); also recorded: time to reach the baseline value (t = 36 s); also recorded: time to reach the baseline value (t = 23 s)
  ΔP (middle pressure drop): 22 mg Hg and 32 mg Hg and 20 mg Hg
  ΔP (middle pressure drop), percentage: 31.4% and 47.9% and 37.4%
[8]
  maximal drop of blood pressure: 63.8% ± 3.6
  potentiating factor (Bradykinin = 1): 2.04
[9]
  Blood pressure minimal, PM (middle pressure) = (Ps − Pd) × 0.42 + Pd: 44 mg Hg
  Blood pressure minimal, diastolic: 35 mg Hg
  Blood pressure minimal, systolic: 56 mg Hg
  following short overreaction at maximum (systolic/diastolic): following short overreaction at maximum of 141/108
  time to reach the baseline value: time to reach the baseline value (t = 44 s)
  ΔP (middle pressure drop): 70 mg Hg
  ΔP (middle pressure drop), percentage: 61.4%
S605 5 × 10^−3 M + Bradykinin 2.5 × 10^−6 M, after return to baseline
  following short overreaction at maximum of (systolic/diastolic blood pressure): following short overreaction at maximum of 112/84; also recorded: following short overreaction at maximum of 154/112
[10]
  Blood pressure minimal, PM (middle pressure) = (Ps − Pd) × 0.42 + Pd: 24 mg Hg and 40 mg Hg
  Blood pressure minimal, diastolic: 16 mg Hg and 32 mg Hg
  Blood pressure minimal, systolic: 36 mg Hg and 52 mg Hg
  time to reach the baseline value: time to reach the baseline value (t = 36 s); also recorded: time to reach the baseline value (t = 87 s)
  ΔP (middle pressure drop): 52 mg Hg and 66 mg Hg
  ΔP (middle pressure drop), percentage: 68% and 62.1%
Normotensive rats, result in words
  bradykinin-potentiating effect (short-time decrease of blood pressure induced by bradykinin): concentration dependent bradykinin-potentiating
Relative to Captopril
  fold higher molecular concentration in comparison to Captopril required for the bradykinin-potentiating effect in vivo: 10 fold
